Results on 26 compounds are retold here after patent publication US9409866B2, “Pyridine-2-amides useful as CB2 agonists” (Hoffmann-La Roche Inc., priority 2012, dated 2016).

Assay [1] addresses human CB1 receptors (Homo sapiens (Human), UniProt P21554). The assay is described as follows: functional cAMP assay, CHO cells expressing human CB1. It is filed as cell-based. The essentials:
(§1)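 Cells are seeded 17-24 h ahead, then preincubated in Krebs Ringer bicarbonate buffer with 1 mM IBMX at 30 °C. Compounds act for 30 min at 30 °C, after which lysis and cAMP detection reagents are added for 2 h at room temperature. Time-resolved FRET gives cAMP content, and EC50 values are fitted from it.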
Background: cAMP levels reflect the balance of adenylyl cyclase and phosphodiesterase activity.

The target in assay [2] is human CB2 receptors (Homo sapiens (Human), UniProt P34972). The assay is described as follows: functional cAMP assay, CHO cells expressing human CB2. Format: cell-based. In short, it runs like this:
as §1

Setting [3] is: read-out: Human CB1 EC50; functional cAMP assay, CHO cells expressing human CB1.
Where [4] appears, read: functional cAMP assay, CHO cells expressing human CB1; read-out: Human CB1 EC50.
Where [5] appears, read: Human CB1 EC50 (uM), functional cAMP assay, CHO cells expressing human CB1.

The structures appear in SMILES notation. Like-named read-outs stand apart in the source and are kept apart here.

Sequence of human CB1 receptors (P21554 whole entry): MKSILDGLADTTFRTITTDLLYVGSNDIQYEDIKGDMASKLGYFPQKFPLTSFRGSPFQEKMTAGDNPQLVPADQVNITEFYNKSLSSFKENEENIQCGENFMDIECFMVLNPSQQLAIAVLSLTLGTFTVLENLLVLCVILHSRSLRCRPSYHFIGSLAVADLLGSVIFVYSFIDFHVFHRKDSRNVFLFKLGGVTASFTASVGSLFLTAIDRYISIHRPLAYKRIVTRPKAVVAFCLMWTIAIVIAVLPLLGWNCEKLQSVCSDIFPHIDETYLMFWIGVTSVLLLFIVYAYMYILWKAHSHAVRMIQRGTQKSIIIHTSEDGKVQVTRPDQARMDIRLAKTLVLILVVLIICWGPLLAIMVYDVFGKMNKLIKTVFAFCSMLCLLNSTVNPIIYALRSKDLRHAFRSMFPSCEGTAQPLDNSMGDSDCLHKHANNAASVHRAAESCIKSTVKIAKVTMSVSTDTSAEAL
Sequence of human CB2 receptors (P34972 whole entry): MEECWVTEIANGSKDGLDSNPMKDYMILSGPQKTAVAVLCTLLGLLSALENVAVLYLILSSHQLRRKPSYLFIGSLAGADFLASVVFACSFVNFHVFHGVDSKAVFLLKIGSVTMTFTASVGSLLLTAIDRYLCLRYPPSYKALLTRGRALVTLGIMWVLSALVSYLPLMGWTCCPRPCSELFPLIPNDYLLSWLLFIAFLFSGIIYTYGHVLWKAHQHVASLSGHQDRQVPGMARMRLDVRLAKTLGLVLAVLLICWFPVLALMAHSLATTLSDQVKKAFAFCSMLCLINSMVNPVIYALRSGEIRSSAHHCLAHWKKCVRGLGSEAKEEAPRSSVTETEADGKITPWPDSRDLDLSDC

As a reminder, the EC50 is the midpoint of the concentration-response curve. As for `Cc1nc(C(C)(CC2CC2)NC(=O)c2cc(OCC(F)F)c(C3CC3)cn2)no1` (single isomer, unassigned) [Example 155, 5-cyclopropyl-N-[1-cyclopropyl-2-(5-methyl-1,2,4-oxadiazol-3-yl)propan-2-yl]-4-(2,2-difluoroethoxy)pyridine-2-carboxamide], the half-maximal effective concentration (EC50) in assay [1] (setting [3]) was greater than 10 µM; in assay [2] (Human CB2 EC50 (uM)), 0.0058 µM.
For `CC(CC1CC1)(NC(=O)c1cc(OCC(F)(F)F)c(C2CC2)cn1)c1nnn[nH]1` (stereo not shown) [Example 159, 5-cyclopropyl-N-[1-cyclopropyl-2-(1H-tetrazol-5-yl)propan-2-yl]-4-(2,2,2-trifluoroethoxy)pyridine-2-carboxamide], the EC50 in assay [1] (setting [4]) is greater than 10 µM; in assay [2] (read-out: Human CB2 EC50) it was 0.935 µM.
For `Cc1nc(C(C)(NC(=O)c2cc(O[C@@H](C)C(F)(F)F)c(C3(F)COC3)cn2)C2CC2)no1` (stereo partly drawn) [Example 144, N-[1-cyclopropyl-1-(5-methyl-1,2,4-oxadiazol-3-yl)ethyl]-5-(3-fluorooxetan-3-yl)-4-[(2S)-1,1,1-trifluoropropan-2-yl]oxypyridine-2-carboxamide] the same measures were greater than 10 µM and 0.0141 µM.
Regarding `O=C(NC1(CO)CC1)c1cc(OCC2CC2)c(N2CC(F)(F)C2)cn1` [Example 53, 4-Cyclopropylmethoxy-5-(3,3-difluoro-azetidin-1-yl)-pyridine-2-carboxylic acid (1-hydroxymethyl-cyclopropyl)-amide], the EC50 in assay [1] (setting [4]) is greater than 10 µM; in assay [2] (read-out: Human CB2 EC50), 0.0726 µM.
For `CCC(CC)(NC(=O)c1cc(OCC2CC2)c(C2CC2)cn1)C(=O)NC` [Example 45, 5-Cyclopropyl-4-cyclopropylmethoxy-pyridine-2-carboxylic acid (1-ethyl-1-methylcarbamoyl-propyl)-amide] the same measures were greater than 10 µM and 0.017 µM.
As to `C[C@H](Oc1cc(C(=O)NC(C)(CC(N)=O)C2CC2)ncc1C1CC1)C(F)(F)F` (stereo partly drawn) [Example 248, N-(4-amino-2-cyclopropyl-4-oxobutan-2-yl)-5-cyclopropyl-4-[(2S)-1,1,1-trifluoropropan-2-yl]oxypyridine-2-carboxamide], the values for the EC50 in assay [1] (setting [4]) and in assay [2] (read-out: Human CB2 EC50) were greater than 10 µM and 0.0009 µM, respectively.
Turning to `CC(CC1CC1)(NC(=O)c1cc(OCC(F)(F)F)c(C2CC2)cn1)c1noc(N)n1` (stereo not shown) [Example 165, N-[2-(5-amino-1,2,4-oxadiazol-3-yl)-1-cyclopropylpropan-2-yl]-5-cyclopropyl-4-(2,2,2-trifluoroethoxy)pyridine-2-carboxamide], the EC50 is greater than 10 µM in assay [1] (setting [4]) and 0.022 µM in assay [2] (read-out: Human CB2 EC50).
Regarding `Cc1nc(C(C)(NC(=O)c2cc(O[C@H](C)C(F)(F)F)c(C3CC3)cn2)C2CC2)no1` (single isomer, unassigned; epimer a) [Example 72], the figures for the EC50 in assay [1] (setting [4]) and in assay [2] (read-out: Human CB2 EC50) were 0.19 µM and 0.0027 µM, respectively.
For `Cc1nc(C(C)(CC2CC2)NC(=O)c2cc(OCCF)c(C3CC3)cn2)no1` (single isomer, unassigned) [Example 156, 5-cyclopropyl-N-[1-cyclopropyl-2-(5-methyl-1,2,4-oxadiazol-3-yl)propan-2-yl]-4-(2-fluoroethoxy)pyridine-2-carboxamide], the figures for the EC50 in assay [1] (setting [5]) and in assay [2] (Human CB2 EC50 (uM)) were greater than 10 µM and 0.0047 µM, respectively.
For `CC(CC(N)=O)(NC(=O)c1cc(OCC(F)F)c(C2CC2)cn1)C1CC1` (single isomer, unassigned) [Example 272, N-[4-amino-2-cyclopropyl-4-oxobutan-2-yl]-5-cyclopropyl-4-(2,2-difluoroethoxy)pyridine-2-carboxamide] the same measures were greater than 10 µM and 0.0495 µM.
`C[C@H](Oc1cc(C(=O)NC(C)(C#N)CC2CC2)ncc1C1(F)COC1)C(F)(F)F` (stereo partly drawn) [Example 143, N-(2-cyano-1-cyclopropylpropan-2-yl)-5-(3-fluorooxetan-3-yl)-4-[(2S)-1,1,1-trifluoropropan-2-yl]oxypyridine-2-carboxamide]: the EC50 was greater than 10 µM in assay [1] (setting [4]) and 0.246 µM in assay [2] (read-out: Human CB2 EC50).
For `O=C(NC1(c2nccs2)COC1)c1cc(OCC2CC2)c(C2CC2)cn1` [Example 42, 5-Cyclopropyl-4-cyclopropylmethoxy-pyridine-2-carboxylic acid (3-thiazol-2-yl-oxetan-3-yl)-amide] the same measures were greater than 10 µM and 0.0116 µM.
Turning to `CC(CC(N)=O)(NC(=O)c1cc(OCC(F)(F)F)c(C2(F)CCC2)cn1)C1CC1` (single isomer, unassigned) [Example 310, N-[4-amino-2-cyclopropyl-4-oxobutan-2-yl]-5-(1-fluorocyclobutyl)-4-(2,2,2-trifluoroethoxy)pyridine-2-carboxamide], the EC50 in assay [1] (setting [5]) was 2.44 µM; in assay [2] (Human CB2 EC50 (uM)), 0.0154 µM.
For `CN(C)C(=O)C(NC(=O)c1cc(OCC(F)(F)F)c(C2CC2)cn1)C(C)(C)C` (stereo not shown) [Example 195, 5-cyclopropyl-N-[1-(dimethylamino)-3,3-dimethyl-1-oxobutan-2-yl]-4-(2,2,2-trifluoroethoxy)pyridine-2-carboxamide], the EC50 was greater than 10 µM in assay [1] (setting [4]) and 0.0034 µM in assay [2] (read-out: Human CB2 EC50).
`CC(C)(C)C(NC(=O)c1cc(OCC(F)(F)F)c(C2CC2)cn1)C(=O)N1CCC1` (stereo not shown) [Example 196, N-[1-(azetidin-1-yl)-3,3-dimethyl-1-oxobutan-2-yl]-5-cyclopropyl-4-(2,2,2-trifluoroethoxy)pyridine-2-carboxamide]: the EC50 in assay [1] (setting [4]) is greater than 10 µM; in assay [2] (read-out: Human CB2 EC50), 0.0012 µM.
For `Cc1nc(C(NC(=O)c2cc(O[C@@H](C)C(F)(F)F)c(C3CC3)cn2)C(C)(C)C)no1` (stereo partly drawn) [Example 221, 5-cyclopropyl-N-[2,2-dimethyl-1-(5-methyl-1,2,4-oxadiazol-3-yl)propyl]-4-[(2S)-1,1,1-trifluoropropan-2-yl]oxypyridine-2-carboxamide] the same measures were greater than 10 µM and 0.0084 µM.
With `CC(C)(C)[C@H](CO)NC(=O)c1cc(OCC2CC2)c(Cl)cn1` [Example 29, 5-Chloro-4-cyclopropylmethoxy-pyridine-2-carboxylic acid ((R)-1-hydroxymethyl-2,2-dimethyl-propyl)-amide], the EC50 in assay [1] (setting [4]) was greater than 10 µM; in assay [2] (read-out: Human CB2 EC50), 0.0646 µM.
As for `Cc1nc([C@](C)(CC2CC2)NC(=O)c2cc(OCC(F)(F)F)c(Cl)cn2)no1` (single isomer, unassigned) [Example 94, 5-Chloro-4-(2,2,2-trifluoro-ethoxy)-pyridine-2-carboxylic acid [2-cyclopropyl-1-methyl-1-(5-methyl-[1,2,4]oxadiazol-3-yl)-ethyl]-amide], the results for the EC50 in assay [1] (setting [5]) and in assay [2] (Human CB2 EC50 (uM)) were greater than 10 µM and 0.0747 µM, respectively.
On to `Cc1nc(C(C)(CC2CC2)NC(=O)c2cc(OCC(F)(F)F)c(C3(O)COC3)cn2)no1` (stereo not shown) [Example 123, N-[1-cyclopropyl-2-(5-methyl-1,2,4-oxadiazol-3-yl)propan-2-yl]-5-(3-hydroxyoxetan-3-yl)-4-(2,2,2-trifluoroethoxy)pyridine-2-carboxamide], for which the EC50 was greater than 10 µM in assay [1] (setting [4]) and 0.998 µM in assay [2] (read-out: Human CB2 EC50).
As for `Cc1nc(C(C)(CC2CC2)NC(=O)c2cc(O[C@@H](C)C(F)(F)F)c(C3(F)COC3)cn2)no1` (stereo partly drawn) [Example 142, N-[1-cyclopropyl-2-(5-methyl-1,2,4-oxadiazol-3-yl)propan-2-yl]-5-(3-fluorooxetan-3-yl)-4-[(2S)-1,1,1-trifluoropropan-2-yl]oxypyridine-2-carboxamide], the EC50 is greater than 10 µM in assay [1] (setting [4]) and 0.0041 µM in assay [2] (read-out: Human CB2 EC50).
Take `CNC(=O)C(NC(=O)c1cc(O[C@@H](C)C(F)(F)F)c(C2CC2)cn1)C(C)(C)O` (stereo partly drawn) [Example 253, 5-cyclopropyl-N-[3-hydroxy-3-methyl-1-(methylamino)-1-oxobutan-2-yl]-4-[(2S)-1,1,1-trifluoropropan-2-yl]oxypyridine-2-carboxamide]: the EC50 in assay [1] (setting [4]) is greater than 10 µM; in assay [2] (read-out: Human CB2 EC50), 0.0019 µM.
For `Cc1nc(C(C)(NC(=O)c2cc(OCC(F)(F)F)c(C3CC3)cn2)C2CC2)no1` (stereo not shown) [Example 49, 5-Cyclopropyl-4-(2,2,2-trifluoro-ethoxy)-pyridine-2-carboxylic acid [1-cyclopropyl-1-(5-methyl-[1,2,4]oxadiazol-3-yl)-ethyl]-amide] the same measures were greater than 10 µM and 0.0017 µM.
For `O=C(N[C@@H](c1cccnc1)C(F)(F)F)c1cc(Cc2ccc(F)cc2)c(Cl)cn1` [Example 41, 5-Chloro-4-(4-fluoro-benzyl)-pyridine-2-carboxylic acid ((S)-2,2,2-trifluoro-1-pyridin-3-yl-ethyl)-amide] the same measures were 0.145 µM and 0.0033 µM.
For `CNC(=O)CC(C)(NC(=O)c1cc(O[C@@H](C)C(F)(F)F)c(C2CC2)cn1)C1CC1` (stereo partly drawn) [Example 250, 5-cyclopropyl-N-[2-cyclopropyl-4-(methylamino)-4-oxobutan-2-yl]-4-[(2S)-1,1,1-trifluoropropan-2-yl]oxypyridine-2-carboxamide] the same measures were greater than 10 µM and 0.0332 µM.
`Cc1nc([C@](C)(CS(C)(=O)=O)NC(=O)c2cc(OCC(F)(F)F)c(C3CC3)cn2)no1` (single isomer, unassigned) [Example 99, 5-Cyclopropyl-4-(2,2,2-trifluoro-ethoxy)-pyridine-2-carboxylic acid [2-methanesulfonyl-1-methyl-1-(5-methyl-[1,2,4]oxadiazol-3-yl)-ethyl]-amide]: the EC50 was greater than 10 µM in assay [1] (setting [5]) and 0.104 µM in assay [2] (Human CB2 EC50 (uM)).
`CC(CC(N)=O)(NC(=O)c1cc(OCC(F)(F)F)c(N2CC(F)(F)C2)cn1)C1CC1` (single isomer, unassigned) [Example 276, N-[4-amino-2-cyclopropyl-4-oxobutan-2-yl]-5-(3,3-difluoroazetidin-1-yl)-4-(2,2,2-trifluoroethoxy)pyridine-2-carboxamide]: the EC50 in assay [1] (setting [3]) was greater than 10 µM; in assay [2] (Human CB2 EC50 (uM)) it was 0.137 µM.
